# Test results: PubChem BioAssay AID248 (DTP/NCI, 2004)
# Values joined by “and” are separate entries in the source; they are usually repeats but may differ in a detail not shown here. Equal values may be shown once. Toxic doses and inconclusive results are not listed.
# Tested on: L1210 leukemia ip in BDF1 mice, survival T/C
# Assay: NCI In Vivo Anticancer Drug Screen. Data for tumor model L1210 Leukemia (intraperitoneal) in B6D2F1 (BDF1) mice
# Conditions: endpoint: mean survival time, higher = longer survival
# Summary of the method: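 Value reflects the ratio of survival in compound-treated mice to survival in vehicle-treated controls, with both groups carrying the same transplanted tumor.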
# [1] = dose: 100.0 mg/kg/injection, schedule: Q04DX002 (ip), vehicle: Klucel (hydroxypropylcellulose) (HPC)
# [2] = dose: 200.0 mg/kg/injection, schedule: Q04DX002 (ip), vehicle: Klucel (hydroxypropylcellulose) (HPC)
# [3] = dose: 400.0 mg/kg/injection, schedule: Q04DX002 (ip), vehicle: Klucel (hydroxypropylcellulose) (HPC)
# [4] = dose: 100.0 mg/kg/injection, schedule: Q01DX009 (ip), vehicle: carboxymethylcellulose (CMC)
# [5] = dose: 200.0 mg/kg/injection, schedule: Q01DX009 (ip), vehicle: carboxymethylcellulose (CMC)
# [6] = dose: 400.0 mg/kg/injection, schedule: Q01DX009 (ip), vehicle: carboxymethylcellulose (CMC)
# [7] = dose: 100.0 mg/kg/injection, schedule: Q01DX009 (ip), vehicle: Klucel (hydroxypropylcellulose) (HPC)
# [8] = dose: 100.0 mg/kg/injection, schedule: Q04DX003 (ip), vehicle: Klucel (hydroxypropylcellulose) (HPC)
# [9] = dose: 200.0 mg/kg/injection, schedule: Q01DX009 (ip), vehicle: Klucel (hydroxypropylcellulose) (HPC)
# [10] = dose: 200.0 mg/kg/injection, schedule: Q04DX003 (ip), vehicle: Klucel (hydroxypropylcellulose) (HPC)
# [11] = dose: 400.0 mg/kg/injection, schedule: Q01DX009 (ip), vehicle: Klucel (hydroxypropylcellulose) (HPC)
# [12] = dose: 400.0 mg/kg/injection, schedule: Q04DX003 (ip), vehicle: Klucel (hydroxypropylcellulose) (HPC)
# [13] = dose: 50.0 mg/kg/injection, schedule: Q04DX003 (ip), vehicle: Klucel (hydroxypropylcellulose) (HPC)
# [14] = dose: 100.0 mg/kg/injection, schedule: Q01DX001 (ip), vehicle: saline
# [15] = dose: 200.0 mg/kg/injection, schedule: Q01DX001 (ip), vehicle: saline
# [16] = dose: 400.0 mg/kg/injection, schedule: Q01DX001 (ip), vehicle: saline
# [17] = dose: 100.0 mg/kg/injection, schedule: Q04DX003 (ip), vehicle: saline
smiles,measurement,setting,value
COC(=O)C1C2CCC(C2)C1C(=O)OC (stereo not drawn),T/C,[1],111 % of control
same,T/C,[2],93 % of control
same,T/C,[3],107 % of control
O=C(NCCCCCCCNC(=O)Nc1ccc(C2=NCCN2)cc1)Nc1ccc(C2=NCCN2)cc1,T/C,"dose: 62.0 mg/kg/injection, schedule: Q01DX Z (ip), vehicle: carboxymethylcellulose (CMC)",107 % of control
same,T/C,"dose: 125.0 mg/kg/injection, schedule: Q01DX Z (ip), vehicle: carboxymethylcellulose (CMC)",98 % of control
same,T/C,"dose: 250.0 mg/kg/injection, schedule: Q01DX Z (ip), vehicle: carboxymethylcellulose (CMC)",98 % of control
COC(=O)C1C2C=CC(O2)C1C(=O)OC (stereo not drawn),T/C,[4],98 % of control
same,T/C,"dose: 100.0 mg/kg/injection, schedule: Q01DX009 (ip), vehicle: other",101 % of control
same,T/C,[5],102 % of control
same,T/C,"dose: 200.0 mg/kg/injection, schedule: Q01DX009 (ip), vehicle: other",102 % of control
same,T/C,[6],96 % of control
same,T/C,"dose: 400.0 mg/kg/injection, schedule: Q01DX009 (ip), vehicle: other",101 % of control
Cc1cccc(C)c1NCC(=O)NN,T/C,[1],106 % of control
same,T/C,[2],106 % of control
same,T/C,[3],120 % of control
CC(=O)C1CCC=C2C1CC1CC2C1(C)C (stereo not drawn),T/C,[7],106 % of control
same,T/C,[8],92 % of control
same,T/C,[9],100 % of control
same,T/C,[10],87 % of control
same,T/C,[11],101 % of control
same,T/C,[12],90 % of control
CC(=O)N(C)c1ccc(NC(=O)Nc2ccc(F)cc2)cc1,T/C,"dose: 100.0 mg/kg/injection, schedule: Q01DX001 (ip), vehicle: carboxymethylcellulose (CMC)",97 % of control
same,T/C,[4],95 % of control and 103 % of control
same,T/C,"dose: 100.0 mg/kg/injection, schedule: Q04DX002 (ip), vehicle: carboxymethylcellulose (CMC)",95 % of control and 97 % of control and 90 % of control
same,T/C,"dose: 100.0 mg/kg/injection, schedule: Q04DX003 (ip), vehicle: carboxymethylcellulose (CMC)",104 % of control
same,T/C,"dose: 200.0 mg/kg/injection, schedule: Q01DX001 (ip), vehicle: carboxymethylcellulose (CMC)",96 % of control
same,T/C,[5],101 % of control and 103 % of control
same,T/C,"dose: 200.0 mg/kg/injection, schedule: Q04DX002 (ip), vehicle: carboxymethylcellulose (CMC)",93 % of control and 96 % of control and 87 % of control
same,T/C,"dose: 200.0 mg/kg/injection, schedule: Q04DX003 (ip), vehicle: carboxymethylcellulose (CMC)",107 % of control
same,T/C,"dose: 400.0 mg/kg/injection, schedule: Q01DX001 (ip), vehicle: carboxymethylcellulose (CMC)",106 % of control
same,T/C,[6],95 % of control and 101 % of control
same,T/C,"dose: 400.0 mg/kg/injection, schedule: Q04DX002 (ip), vehicle: carboxymethylcellulose (CMC)",97 % of control and 98 % of control and 104 % of control
same,T/C,"dose: 400.0 mg/kg/injection, schedule: Q04DX003 (ip), vehicle: carboxymethylcellulose (CMC)",98 % of control
CCN(C(=O)/C=C/c1ccccc1)C1CCCCC1,T/C,[7],94 % of control
same,T/C,[8],102 % of control
same,T/C,[9],102 % of control
same,T/C,[10],96 % of control
same,T/C,[11],86 % of control
same,T/C,[12],105 % of control
CC(C)C1(Cc2ccccc2)C(=O)NC(=S)NC1=O,T/C,"dose: 75.0 mg/kg/injection, schedule: Q01DX001 (ip), vehicle: saline",95 % of control
same,T/C,"dose: 150.0 mg/kg/injection, schedule: Q01DX001 (ip), vehicle: saline",93 % of control
NC(=O)OCC#CCN1CCCC1,T/C,"dose: 5.0 mg/kg/injection, schedule: Q04DX003 (ip), vehicle: saline with Tween-80",96 % of control
same,T/C,"dose: 10.0 mg/kg/injection, schedule: Q04DX003 (ip), vehicle: saline with Tween-80",98 % of control
same,T/C,"dose: 20.0 mg/kg/injection, schedule: Q04DX003 (ip), vehicle: saline with Tween-80",93 % of control
O=Cc1cccc(Oc2cccc(C=O)c2)c1,T/C,"dose: 100.0 mg/kg/injection, schedule: Q01DX001 (ip), vehicle: Klucel (hydroxypropylcellulose) (HPC)",97 % of control
same,T/C,"dose: 200.0 mg/kg/injection, schedule: Q01DX001 (ip), vehicle: Klucel (hydroxypropylcellulose) (HPC)",95 % of control
same,T/C,"dose: 400.0 mg/kg/injection, schedule: Q01DX001 (ip), vehicle: Klucel (hydroxypropylcellulose) (HPC)",92 % of control
C#CCONC(=O)c1ccc(OC)cc1,T/C,"dose: 25.0 mg/kg/injection, schedule: Q01DX009 (ip), vehicle: carboxymethylcellulose (CMC)",98 % of control
same,T/C,"dose: 50.0 mg/kg/injection, schedule: Q01DX009 (ip), vehicle: carboxymethylcellulose (CMC)",98 % of control
same,T/C,[4],96 % of control
COc1ccc(CCN)cc1OC,T/C,"dose: 100.0 mg/kg/injection, schedule: Q04DX002 (ip), vehicle: saline",106 % of control
same,T/C,"dose: 200.0 mg/kg/injection, schedule: Q04DX002 (ip), vehicle: saline",100 % of control
same,T/C,"dose: 400.0 mg/kg/injection, schedule: Q04DX002 (ip), vehicle: saline",100 % of control
NC(=S)N/N=C1\c2ccccc2-c2c(F)c(F)c(F)c(F)c21,T/C,"dose: 5.0 mg/kg/injection, schedule: Q01DX001 (ip), vehicle: carboxymethylcellulose (CMC)",96 % of control
same,T/C,"dose: 10.0 mg/kg/injection, schedule: Q01DX001 (ip), vehicle: carboxymethylcellulose (CMC)",107 % of control
same,T/C,"dose: 20.0 mg/kg/injection, schedule: Q01DX001 (ip), vehicle: carboxymethylcellulose (CMC)",96 % of control
N#Cc1ccc(NC(=O)COc2cccc(Cl)c2)cc1,T/C,"dose: 37.5 mg/kg/injection, schedule: Q01DX001 (ip), vehicle: saline with Tween-80",95 % of control
same,T/C,"dose: 150.0 mg/kg/injection, schedule: Q01DX001 (ip), vehicle: saline with Tween-80",92 % of control
CCCCNC(=O)CS(=O)(=O)c1ccc(Cl)cc1,T/C,"dose: 100.0 mg/kg/injection, schedule: Q04DX003 (ip), vehicle: saline with Tween-80",94 % of control
same,T/C,"dose: 200.0 mg/kg/injection, schedule: Q04DX003 (ip), vehicle: saline with Tween-80",100 % of control
same,T/C,"dose: 400.0 mg/kg/injection, schedule: Q04DX003 (ip), vehicle: saline with Tween-80",94 % of control
Nc1nc(=S)c2[nH]c(N=Nc3ccc(S(=O)(=O)Nc4ccccn4)cc3)nc2[nH]1,T/C,"dose: 6.25 mg/kg/injection, schedule: Q01DX009 (ip), vehicle: Klucel (hydroxypropylcellulose) (HPC)",170 % of control
same,T/C,"dose: 25.0 mg/kg/injection, schedule: Q01DX009 (ip), vehicle: Klucel (hydroxypropylcellulose) (HPC)",112 % of control
same,T/C,"dose: 50.0 mg/kg/injection, schedule: Q01DX009 (ip), vehicle: Klucel (hydroxypropylcellulose) (HPC)",100 % of control and 117 % of control and 124 % of control
same,T/C,[13],106 % of control
same,T/C,[14],98 % of control
same,T/C,[7],101 % of control
same,T/C,[8],117 % of control
same,T/C,[15],104 % of control
same,T/C,[9],100 % of control
same,T/C,[16],104 % of control
COC(=O)N1C2CCC(C2=C(C)C)N1C(=O)OC,T/C,[13],105 % of control
same,T/C,[8],102 % of control
same,T/C,[10],94 % of control
O=C(CC(=O)c1ccccc1)c1ccccc1,T/C,"dose: 100.0 mg/kg/injection, schedule: Q04DX002 (ip), vehicle: saline with Tween-80",97 % of control
same,T/C,"dose: 200.0 mg/kg/injection, schedule: Q04DX002 (ip), vehicle: saline with Tween-80",102 % of control
same,T/C,"dose: 400.0 mg/kg/injection, schedule: Q04DX002 (ip), vehicle: saline with Tween-80",94 % of control
Nc1cc(S(=O)(=O)O)cc2cc(S(=O)(=O)O)c(N=Nc3cc(S(=O)(=O)O)cc4cc(S(=O)(=O)O)cc(O)c34)c(O)c12,T/C,"dose: 100.0 mg/kg/injection, schedule: Q01DX009 (ip), vehicle: saline",105 % of control
same,T/C,[17],96 % of control
same,T/C,"dose: 200.0 mg/kg/injection, schedule: Q01DX009 (ip), vehicle: saline",94 % of control
same,T/C,"dose: 200.0 mg/kg/injection, schedule: Q04DX003 (ip), vehicle: saline",91 % of control
same,T/C,"dose: 400.0 mg/kg/injection, schedule: Q01DX009 (ip), vehicle: saline",95 % of control
same,T/C,"dose: 400.0 mg/kg/injection, schedule: Q04DX003 (ip), vehicle: saline",96 % of control
NC(N)=NC1CCCC1,T/C,[17],104 % of control
O=C1NC(=S)S/C1=C\c1ccc([N+](=O)[O-])cc1,T/C,[14],90 % of control
CNC(=O)c1ccc(/C=C/c2c[nH]c3ccccc23)[n+](C)c1,T/C,[14],97 % of control
same,T/C,[15],95 % of control
CCCCOP(=O)(/C=C/c1ccc(NC(C)=O)cc1)OCCCC,T/C,[1],104 % of control
same,T/C,[2],96 % of control
same,T/C,[3],89 % of control
Cc1ccon1,T/C,[14],102 % of control
same,T/C,[15],100 % of control
same,T/C,[16],96 % of control
